# Data published in US20010049369A1, “Brimonidine compositions and methods for retinal degeneration” (priority 2000, published 2001).
# Read-outs that look alike come from different tables or passages of the source.
# Experiments:
# [1] = test system: cAMP; settings: retina (Osborne 1991); cited from earlier work
# [2] = test system: photoreceptors; settings: albino rats, cited from earlier work; for protection of photoreceptors from light damage: systemic administration (Wen et al., 1996)
# [3] = test system: mitogen-activated protein kinase (MAPK); settings: systemically administered (Peng et al., 1998); cited from earlier work
# [4] = topically applied, glaucomatous patients (Lachkar 1998; Carlsson 1999); cited from earlier work
# [5] = test system: retinal degeneration (RP); settings: patients with RP, 15,000 I.U. daily (Berson 1993); cited from earlier work
# [6] = test system: Müller cells of RPE-free eye rudiments; settings: for upregulation of GFAP induced by RPE removal: brimonidine added to culture media; for glutamine synthetase (GS) immunoreactivity: brimonidine-treated RPE-free eye rudiments
# Method: (§1) The following studies were performed on Xenopus embryos. Briefly, eye rudiments were removed from stage 33/34 Xenopus embryos. The RPE was peeled from the outer retinal surface and eyes were cultured for 3 days in Niu-Twitty (NT) medium. The same experiment was performed in NT medium containing 0.001% brimonidine. Control conditions included eye rudiments cultured with the RPE and eyes allowed to mature in vivo to an equivalent developmental stage. Retinal morphology was assessed, carefully evaluating PRs and MCs.
# (§2) The culture preparation used in these studies has been previously described (Hollyfield, 1974; Lolley, 1977; Stiemke, 1994; Stiemke, 1995; and Jablonski, 1999). The handling of animals was in accordance with the Declaration of Helsinki and The Guiding Principles in the Care and Use of Animals (DHEW Publication, NIH 80-23). Human chorionic gonadotropin (Sigma Chemical Co., St. Louis, Mo.) was to induce adult Xenopus laevis to breed. The external staging system of Nieuwkoop and Faber was used to determine retinal maturity (Nieuwkoop, 1956). Embryos and isolated eyes were maintained under cyclic lighting conditions (12 hour light: 12 hour dark) in all experiments, rudimentary eyes were removed from embryos at state 33/34, just as photoreceptor outer segments are beginning to form (Stiemke, 1994). Eyes were maintained in vitro for three days at 23° C. in Niu-Twitty medium (Jacobson, 1967) after which they were fixed for subsequent analyses.
# When appropriate, the overlying RPE was gently peeled away from the neuroepithelium using finely polished forceps, leaving the underlying retina exposed to the culture medium. Eye rudiments without a closely adherent RPE were cultured in Niu-Twitty media alone, Niu-Twitty containing 0.001% brimonidine. Eyes allowed to mature in vitro in the presence of an adherent RPE in Niu-Twitty medium alone were used as controls.
# Any eye with an uneven surface or which had many loose cells associated with it was discarded.
# [7] = test system: opsin; settings: 0.0001% brimonidine in culture media
# Method: as §1
# as §2, with “Eyes were maintained in vitro for three days at 23° C. in Niu-Twitty medium (Jacobson, 1967) after which they were fixed for subsequent analyses.” left out
# [8] = expected, topical administration, to be verified
# Excerpt: The intraocular concentration is likely to be inversely proportional to the surface area available for absorption. […] Once verified, the dosage of brimonidine in eyedrops will be adjusted accordingly (10:1 dilution, i.e. 0.02%) to mimic more closely the intraocular concentrations that would be reached during human application.
# The intraocular concentration is likely to be inversely proportional to the surface area available for absorption. […] Once verified, the dosage of brimonidine in the eyedrops would be adjusted accordingly (predicted to be a 10:1 dilution, i.e., 0.02%) to mimic more closely the intraocular concentrations that would be reached during human application.
# [9] = test system: ischemic retinal injury; settings: cited from earlier work
# [10] = rabbit, cited from earlier work
# [11] = primate, 2% solution of brimonidine tartrate, twice daily; cited from earlier work
# [12] = test system: retinal ganglion cells; settings: rat, intraperitoneal administration (Yoles et al 1999); cited from earlier work
# [13] = topical administration to the eye, animals and clinical trials; cited from earlier work
compound,measurement,setting,value
Brc1c(NC2=NCCN2)ccc2nccnc12 [UK 14304],cAMP levels following stimulation with forskolin and VIP,[1],reduce cAMP levels
Cc1cccc(C)c1N=C1NCCCS1 [xylazine],protection of photoreceptors from light damage,[2],protect the photoreceptors of albino rats from light damage
same,MAPK phosphorylation in Müller cells,[3],activate selectively and specifically
COC(=O)[C@@H]1[C@H]2C[C@H]3c4[nH]c5ccccc5c4CCN3C[C@@H]2CC[C@@H]1O [yohimbine],effect of pretreatment on the protective effect of xylazine and clonidine,"[2]; pretreatment with the antagonist (Wen et al., 1996)",prevented the protective effect
brimonidine tartrate,"blood flow in ophthalmic, central retinal, nasal and temporal ciliary arteries",[4],did not affect the blood flow
Clc1cccc(Cl)c1N=C1NCCN1 [clonidine],protection of photoreceptors from light damage,[2],protect the photoreceptors of albino rats from light damage
same,MAPK phosphorylation in Müller cells,[3],activate selectively and specifically
same,cAMP levels following stimulation with forskolin and VIP,[1],reduce cAMP levels
CCCCCCCCCCCCCCCC(=O)OC/C=C(C)/C=C/C=C(C)/C=C/C1=C(C)CCCC1(C)C [vitamin A palmitate],progression of retinal degeneration,[5],"slowed, but did not prevent, the progression of retinal degeneration"
"Brc1c(NC2=NCCN2)ccc2nccnc12 [brimonidine, 5-bromo-6-(2-imidazolidinylideneamino)-quinoxaline]",n-cadherin immunolocalization patterns,"[6]; 0.0001% brimonidine, RPE removed, data not shown",preserved
same,upregulation of GFAP induced by RPE removal,[6]; RPE removed,virtually abolished
same,upregulation of GFAP induced by RPE removal,"[6]; RPE removed, listed as Brimonidine",prevented the upregulation of GFAP expression
same,glutamine synthetase (GS) immunoreactivity,[6],well preserved
same,glutamine synthetase (GS) immunoreactivity,[6]; listed as Brimonidine,allows Müller cells to express glutamine synthetase in the absence of the RPE
same,amount of opsin/eye compared to RPE-free eyes cultured without brimonidine,[7],marked increase
same,intraocular concentration in mouse eye relative to primate eye,[8],approximately 10 times
same,ERG b-wave truncation due to ischemia,[9]; retinal ischemia,partially prevent this b-wave truncation
same,ischemic retinal injury,[9]; topically applied 1 hour before injury (Wheeler et al. 1999),effective in decreasing ischemic retinal injury
same,intravitreal concentration reached via topical administration,"[10]; 2% solution of brimonidine tartrate, twice daily",450 nM
same,concentration reaching the fellow eye via the systemic circulation,[10]; topical administration to the other eye,< 15 nM
same,intravitreal concentration reached via topical administration,[11],100 nM
same,loss of retinal ganglion cells induced by the crush,[12],effective in decreasing loss of retinal ganglion cells
same,intraocular pressure (IOP),[13],decrease in intraocular pressure
